Laboratory results as given in patent US20110117627A1, “REGULATION OF APOPTOSIS BY NEURAL SPECIFIC SPLICE VARIANTS OF IG20” (The Board of Trustees of the University of Illinois, priority 2008, published 2011).
Entries after “also recorded” stand apart in the source; their conditions may differ. Where a SMILES comes first, the peptide text is derived from it. The star is where a group is joined. Cbz = O=C(OCc1ccccc1)*; CH2F = FC*

How the values were obtained:
Assay type in all cases: cell-based, human
SK-N-SH cells = assay: Caspase-8 inhibition, apoptosis by Annexin V-PE/7-AAD; conditions: 40 μM and 80 μM for two days
Description: FIG. 6. Down modulation of KIAA0358 or selective expression of IG20-SV4 enhances apoptosis through expression/activation of caspase-8 in SK-N-SH cells. (A) Effects of cycloheximide on expression/activation of caspase-8. Three days post-transduction with shRNA-expressing virus, SK-N-SH cells were treated with 10 μg/ml cycloheximde (a protein synthesis inhibitor) for two days. Whole cell lysates were subjected to western blot analysis. (B) Caspase-8 reporter assay. SK-N-SH cells were cotransfected with pGL4.17-caspase-8 promoter vector, pSV40-Renilla luciferase vector and pEYFP-C1/or pEYFP-IG20-SV4 using Lipofectamine2000, 48 hrs later, cells were collected and analyzed for luciferase activity with the Dual-Luciferase Reporter Assay System (Promega). (C) and (D) Effects of caspase-8 inhibition. Three days post-transduction with shRNA-expressing virus, SK-N-SH cells were treated with 40 μM and 80 μM of Z-1ETD-FMK (a caspase 8 inhibitor) for two days. Collected cells were either subjected to Annexin V-PE/7-AAD stain for FACS analysis (C) or western blot analysis (D). (C) Percentage apoptosis in cells transduced with different shRNAs in the presence or absence of the caspase inhibitor. The P-value was **P<0.01 for Z-IETD-FMK treated vs untreated. […] Representative data are from three independent experiments.
Caspase-8 inhibition. […]

caspase-8 [1] = assay: Caspase-8 inhibition, western blot; conditions: SK-N-SH cells, 40 μM and 80 μM
Description: (§1) FIG. 6. Down modulation of KIAA0358 or selective expression of IG20-SV4 enhances apoptosis through expression/activation of caspase-8 in SK-N-SH cells. (A) Effects of cycloheximide on expression/activation of caspase-8. Three days post-transduction with shRNA-expressing virus, SK-N-SH cells were treated with 10 μg/ml cycloheximde (a protein synthesis inhibitor) for two days. Whole cell lysates were subjected to western blot analysis. (B) Caspase-8 reporter assay. SK-N-SH cells were cotransfected with pGL4.17-caspase-8 promoter vector, pSV40-Renilla luciferase vector and pEYFP-C1/or pEYFP-IG20-SV4 using Lipofectamine2000, 48 hrs later, cells were collected and analyzed for luciferase activity with the Dual-Luciferase Reporter Assay System (Promega). (C) and (D) Effects of caspase-8 inhibition. Three days post-transduction with shRNA-expressing virus, SK-N-SH cells were treated with 40 μM and 80 μM of Z-1ETD-FMK (a caspase 8 inhibitor) for two days. […]
(§2) Western Blot Analysis. […] The protein content was determined using a dye-binding microassay (Bio-Rad), and after boiling the samples for 2 min in a 1× SDS protein sample buffer, 20 μg of protein per lane was loaded and separated on 10% SDS-polyacrylamide gel. […] Proteins were detected using an enhanced chemiluminescence plus western blotting detection system (Amersham, UK). […]

caspase-8 [2] = assay: Cycloheximide treatment of transduced SK-N-SH cells, western blot of caspase-8; conditions: 10 μg/mL cycloheximide
Description: as §1, with “(Promega).” for “(Promega). (C) and (D) Effects of caspase-8 inhibition. Three days post-transduction with shRNA-expressing virus, SK-N-SH cells were treated with 40 μM and 80 μM of Z-1ETD-FMK (a caspase 8 inhibitor) for two days.”
To determine whether the increased apoptosis induced utilizing 34+13L shRNA was due to modulation of the expression of caspase-8, the expression of caspase-8 transcripts was measured in SK-N-SH cells treated with the different combinations of siRNAs. […]
as §2

CC[C@H](C)[C@H](NC(=O)OCc1ccccc1)C(=O)N[C@@H](CCC(=O)OC)C(=O)N[C@H](C(=O)N[C@@H](CC(=O)OC)C(=O)CF)[C@@H](C)O [Z-IETD-FMK] (Cbz-IE(OMe)TD(OMe)-CH2F)
apoptosis in cells treated with shRNA targeting 34E (SK-N-SH cells): did not significantly affect apoptosis
apoptotic effect caused by down-modulation of KIAA0358 (SK-N-SH cells): significantly attenuated the apoptotic effect
effect on caspase-8 expression (western blot) (caspase-8 [1]): inhibitory effect

C[C@@H]1C[C@@H]([C@H](O)CC2CC(=O)NC(=O)C2)C(=O)[C@@H](C)C1 [cycloheximide]
expression of caspase-8 protein (caspase-8 [2]): inhibited the expression of caspase-8 protein; also recorded: the induced caspase-8 was inhibited
